The values that follow come from patent US11759455B2, “Substituted 1H-imidazo[4,5-b]pyridin-2(3H)-ones and their use as GLUN2B receptor modulators” (JANSSEN PHARMACEUTICA NV, priority 2016, dated 2023).

The term IC50 denotes the concentration needed to halve the response being measured.

Each structure is given as a SMILES string.

T1 sequence (Q13224 27-1484, other chains not shown): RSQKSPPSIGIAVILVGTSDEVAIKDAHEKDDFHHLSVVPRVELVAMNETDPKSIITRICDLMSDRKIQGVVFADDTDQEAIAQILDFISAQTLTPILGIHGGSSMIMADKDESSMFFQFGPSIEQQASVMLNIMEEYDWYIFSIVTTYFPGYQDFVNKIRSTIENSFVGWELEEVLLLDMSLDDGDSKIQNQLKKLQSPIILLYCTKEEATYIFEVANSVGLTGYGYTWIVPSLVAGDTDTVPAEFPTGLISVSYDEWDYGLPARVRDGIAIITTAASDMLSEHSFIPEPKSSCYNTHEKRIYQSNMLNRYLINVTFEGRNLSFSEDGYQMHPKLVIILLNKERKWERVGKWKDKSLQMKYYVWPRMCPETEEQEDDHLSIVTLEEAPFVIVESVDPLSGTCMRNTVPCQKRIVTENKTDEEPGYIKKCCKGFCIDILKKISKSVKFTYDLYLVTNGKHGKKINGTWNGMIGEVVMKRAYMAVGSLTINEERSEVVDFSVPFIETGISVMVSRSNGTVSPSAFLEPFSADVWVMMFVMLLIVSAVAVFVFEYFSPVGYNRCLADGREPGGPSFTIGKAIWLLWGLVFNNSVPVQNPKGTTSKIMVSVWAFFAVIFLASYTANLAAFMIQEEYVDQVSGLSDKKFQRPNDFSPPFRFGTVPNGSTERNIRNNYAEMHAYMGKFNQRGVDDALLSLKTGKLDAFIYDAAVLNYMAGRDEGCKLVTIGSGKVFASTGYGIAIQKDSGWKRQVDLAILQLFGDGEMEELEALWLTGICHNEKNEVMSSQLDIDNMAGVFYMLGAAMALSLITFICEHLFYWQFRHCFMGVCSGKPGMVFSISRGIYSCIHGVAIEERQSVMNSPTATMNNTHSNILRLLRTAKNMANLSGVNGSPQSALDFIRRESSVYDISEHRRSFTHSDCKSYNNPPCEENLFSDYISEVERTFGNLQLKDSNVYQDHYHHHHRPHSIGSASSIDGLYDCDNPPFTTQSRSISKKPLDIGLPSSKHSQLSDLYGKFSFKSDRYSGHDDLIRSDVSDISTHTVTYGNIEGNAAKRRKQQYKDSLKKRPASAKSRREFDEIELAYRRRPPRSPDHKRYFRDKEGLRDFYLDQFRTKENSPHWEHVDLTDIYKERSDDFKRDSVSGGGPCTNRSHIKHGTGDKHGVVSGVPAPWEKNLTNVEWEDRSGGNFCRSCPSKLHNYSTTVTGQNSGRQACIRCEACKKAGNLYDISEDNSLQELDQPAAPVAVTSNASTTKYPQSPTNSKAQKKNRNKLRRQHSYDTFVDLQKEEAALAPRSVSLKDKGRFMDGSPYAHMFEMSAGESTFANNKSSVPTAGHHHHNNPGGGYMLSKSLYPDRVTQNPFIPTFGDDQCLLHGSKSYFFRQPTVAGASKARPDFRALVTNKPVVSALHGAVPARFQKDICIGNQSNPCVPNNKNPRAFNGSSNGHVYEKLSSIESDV

The assay has as its target T1, human GluN1/GluN2B NMDA receptors (Homo sapiens, UniProt Q13224).
T1 construct: expressed in transfected cells
In words: Cell-based calcium flux (FLIPR) assay on cloned human NR1/NR2B ion channels expressed in mammalian cells (standard and HTS buffer variants).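 Further: stable Tet-On inducible cell line, Ca2+ influx triggered by glutamate at about EC40 plus 10 µM glycine, fluorescent dye read-out over 5 min, normalized to control wells.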 Particulars: standard assay buffer (0.5 mM MgCl2 dye loading; 137 mM NaCl, 4 mM KCl assay buffer), human GluN1/GluN2B cells, read-out: NR2B IC50 (μM) standard assay. A general note: Calcium flux is commonly read through the fluorescence of an indicator in the cells.
Turning to `CCOC(=O)Cn1c(=O)n(C)c2ncc(-c3cccc(C(F)(F)F)c3)cc21` [Example 136, Ethyl 2-[3-methyl-2-oxo-6-[3-(trifluoromethyl)phenyl]imidazo[4,5-b]pyridin-1-yl]acetate], the IC50 came to 0.159 µM.

On to `Cn1c(=O)n(CC(=O)O)c2cc(-c3cccc(C(F)(F)F)c3)cnc21` [Example 137, 2-[3-Methyl-2-oxo-6-[3-(trifluoromethyl)phenyl]imidazo[4,5-b]pyridin-1-yl]Acetic Acid], for which the IC50 is more than 10 µM.

For `Cn1c(=O)n(CC(=O)N2CC(F)(F)C2)c2cc(-c3cccc(C(F)(F)F)c3)cnc21` [Example 138, 1-[2-(3,3-difluoroazetidin-1-yl)-2-oxo-ethyl]-3-methyl-6-[3-(trifluoromethyl)phenyl]imidazo[4,5-b]pyridin-2-one], the IC50 is 0.089 µM.

Consider `Cc1c(F)ccc(-c2cnc3c(c2)n(Cc2cnccn2)c(=O)n3C)c1F` [Example 139, 6-(2,4-Difluoro-3-methyl-phenyl)-3-methyl-1-(pyrazin-2-ylmethyl)imidazo[4,5-b]pyridin-2-one], for which the IC50 stood at 0.084 µM.

As for `Cc1noc(Cn2c(=O)[nH]c3ncc(-c4ccc(F)cc4)cc32)n1` [Example 140, 6-(4-Fluorophenyl)-1-[(3-methyl-1,2,4-oxadiazol-5-yl)methyl]-3H-imidazo[4,5-b]pyridin-2-one], the IC50 amounted to 0.105 µM.

Consider `Cn1cnc(Cn2c(=O)[nH]c3ncc(-c4ccc(F)cc4)cc32)n1` [Example 141, 6-(4-Fluorophenyl)-1-[(1-methyl-1,2,4-triazol-3-yl)methyl]-3H-imidazo[4,5-b]pyridin-2-one], for which the IC50 turned out to be 1.18 µM.

Take `Cn1cc(Cn2c(=O)[nH]c3ncc(-c4ccc(F)cc4)cc32)nn1` [Example 142, 6-(4-Fluorophenyl)-1-[(1-methyltriazol-4-yl)methyl]-3H-imidazo[4,5-b]pyridin-2-one]: the IC50 came out at 0.208 µM.

On to `Cc1noc(Cn2c(=O)[nH]c3ncc(-c4ccc(F)c(F)c4)cc32)n1` [Example 143, 6-(3,4-Difluorophenyl)-1-[(3-methyl-1,2,4-oxadiazol-5-yl)methyl]-3H-imidazo[4,5-b]pyridin-2-one], for which the IC50 is 0.075 µM.

As for `Cc1nc(Cn2c(=O)[nH]c3ncc(-c4ccc(F)c(F)c4)cc32)no1` [Example 144, 6-(3,4-Difluorophenyl)-1-[(5-methyl-1,2,4-oxadiazol-3-yl)methyl]-3H-imidazo[4,5-b]pyridin-2-one], the IC50 was 0.107 µM.

Take `COCc1noc(Cn2c(=O)[nH]c3ncc(-c4ccc(F)c(F)c4)cc32)n1` [Example 145, 6-(3,4-Difluorophenyl)-1-[[3-(methoxymethyl)-1,2,4-oxadiazol-5-yl]methyl]-3H-imidazo[4,5-b]pyridin-2-one]: the IC50 worked out at 1.31 µM.

With `O=c1[nH]c2ncc(-c3cccc(C(F)(F)F)c3)cc2n1CCN1CCCC1` [Example 146, 1-(2-Pyrrolidin-1-ylethyl)-6-[3-(trifluoromethyl)phenyl]-3H-imidazo[4,5-b]pyridin-2-one], the IC50 is 0.506 µM.

Regarding `O=c1[nH]c2ncc(-c3cccc(C(F)(F)F)c3)cc2n1CCN1CC(O)C1` [Example 147, 1-[2-(3-Hydroxyazetidin-1-yl)ethyl]-6-[3-(trifluoromethyl)phenyl]-3H-imidazo[4,5-b]pyridin-2-one], the IC50 was 0.365 µM.

As to `O=c1[nH]c2ncc(-c3cccc(C(F)(F)F)c3)cc2n1CCNC1CC1` [Example 148, 1-[2-(Cyclopropylamino)ethyl]-6-[3-(trifluoromethyl)phenyl]-3H-imidazo[4,5-b]pyridin-2-one], the IC50 turned out to be 0.505 µM.

For `COC1CN(CCn2c(=O)[nH]c3ncc(-c4cccc(C(F)(F)F)c4)cc32)C1` [Example 149, 1-[2-(3-Methoxyazetidin-1-yl)ethyl]-6-[3-(trifluoromethyl)phenyl]-3H-imidazo[4,5-b]pyridin-2-one], the IC50 turned out to be 0.756 µM.

Regarding `O=c1[nH]c2ncc(-c3cccc(C(F)(F)F)c3)cc2n1CCNC1CCC1` [Example 150, 1-[2-(Cyclobutylamino)ethyl]-6-[3-(trifluoromethyl)phenyl]-3H-imidazo[4,5-b]pyridin-2-one], the IC50 amounted to 0.277 µM.

Regarding `Cc1cc(F)ccc1-c1cnc2[nH]c(=O)n(CCN3CCC3)c2c1` [Example 151, 1-[2-(Azetidin-1-yl)ethyl]-6-(4-fluoro-2-methyl-phenyl)-3H-imidazo[4,5-b]pyridin-2-one], the IC50 came out at 0.115 µM.

Turning to `Cc1ccccc1-c1cnc2[nH]c(=O)n(CCN3CCC3)c2c1` [Example 152, 1-[2-(Azetidin-1-yl)ethyl]-6-(o-tolyl)-3H-imidazo[4,5-b]pyridin-2-one], the IC50 was determined as 0.127 µM.

As to `O=c1[nH]c2ncc(-c3ccccc3)cc2n1CCN1CCC1` [Example 153, 1-[2-(Azetidin-1-yl)ethyl]-6-phenyl-3H-imidazo[4,5-b]pyridin-2-one], the IC50 was found to be 0.283 µM.

For the molecule `Cc1cccc(-c2cnc3[nH]c(=O)n(CCN4CCC4)c3c2)c1` [Example 154, 1-[2-(Azetidin-1-yl)ethyl]-6-(m-tolyl)-3H-imidazo[4,5-b]pyridin-2-one], the IC50 came to 0.077 µM.

For `O=c1[nH]c2ncc(-c3ccnc(C(F)(F)F)c3)cc2n1CCN1CCC1` [Example 155, 1-[2-(Azetidin-1-yl)ethyl]-6-[2-(trifluoromethyl)-4-pyridyl]-3H-imidazo[4,5-b]pyridin-2-one], the IC50 was found to be 1.75 µM.

`Cc1cc(-c2cnc3[nH]c(=O)n(CCN4CCC4)c3c2)ccc1F` [Example 156, 1-[2-(Azetidin-1-yl)ethyl]-6-(4-fluoro-3-methyl-phenyl)-3H-imidazo[4,5-b]pyridin-2-one]: the IC50 stood at 0.039 µM.

Consider `Cc1cccc(C)c1-c1cnc2[nH]c(=O)n(CCN3CCC3)c2c1` [Example 157, 1-[2-(Azetidin-1-yl)ethyl]-6-(2,6-dimethylphenyl)-3H-imidazo[4,5-b]pyridin-2-one], for which the IC50 was 1.97 µM.

Consider `O=c1[nH]c2ncc(-c3cccc(Cl)c3)cc2n1CCN1CCC1` [Example 158, 1-[2-(Azetidin-1-yl)ethyl]-6-(3-chlorophenyl)-3H-imidazo[4,5-b]pyridin-2-one], for which the IC50 was 0.201 µM.

For the molecule `O=c1[nH]c2ncc(-c3cc(F)cc(F)c3)cc2n1CCN1CCC1` [Example 159, 1-[2-(Azetidin-1-yl)ethyl]-6-(3,5-difluorophenyl)-3H-imidazo[4,5-b]pyridin-2-one], the IC50 stood at 0.211 µM.

Consider `O=c1[nH]c2ncc(-c3cccc(OC(F)(F)F)c3)cc2n1CCN1CCC1` [Example 160, 1-[2-(Azetidin-1-yl)ethyl]-6-[3-(trifluoromethoxy)phenyl]-3H-imidazo[4,5-b]pyridin-2-one], for which the IC50 worked out at 0.311 µM.

With `O=c1[nH]c2ncc(-c3cccc(C(F)(F)F)c3)cc2n1CCN1CCCCC1` [Example 161, 1-[2-(1-Piperidyl)ethyl]-6-[3-(trifluoromethyl)phenyl]-3H-imidazo[4,5-b]pyridin-2-one], the IC50 worked out at 1.43 µM.

As for `O=c1[nH]c2ncc(-c3cccc(C(F)(F)F)c3)cc2n1CCN1CCC(F)CC1` [Example 162, 1-[2-(4-Fluoro-1-piperidyl)ethyl]-6-[3-(trifluoromethyl)phenyl]-3H-imidazo[4,5-b]pyridin-2-one], the IC50 amounted to 1.1 µM.

Consider `O=c1[nH]c2ncc(-c3cccc(C(F)(F)F)c3)cc2n1CCN1CC(F)C1` [Example 163, 1-[2-(3-Fluoroazetidin-1-yl)ethyl]-6-[3-(trifluoromethyl)phenyl]-3H-imidazo[4,5-b]pyridin-2-one], for which the IC50 was found to be 0.246 µM.

Consider `CC1CCN(CCn2c(=O)[nH]c3ncc(-c4cccc(C(F)(F)F)c4)cc32)C1` (centres unmarked) [Example 164, 1-[2-(3-Methylpyrrolidin-1-yl)ethyl]-6-[3-(trifluoromethyl)phenyl]-3H-imidazo[4,5-b]pyridin-2-one], for which the IC50 was determined as 1.22 µM.

Turning to `O=c1[nH]c2ncc(-c3cccc(C(F)(F)F)c3)cc2n1CCN1CC(C(F)(F)F)C1` [Example 166, 1-[2-[3-(Trifluoromethyl)azetidin-1-yl]ethyl]-6-[3-(trifluoromethyl)phenyl]-3H-imidazo[4,5-b]pyridin-2-one], the IC50 was determined as 3.48 µM.

On to `O=c1[nH]c2ncc(-c3cccc(C(F)(F)F)c3)cc2n1CCN1CC(F)(F)C1` [Example 167, 1-[2-(3,3-Difluoroazetidin-1-yl)ethyl]-6-[3-(trifluoromethyl)phenyl]-3H-imidazo[4,5-b]pyridin-2-one], for which the IC50 was 0.158 µM.

Take `Cc1c(-c2cnc3[nH]c(=O)n(CCN4CCC4)c3c2)cccc1C(F)(F)F` [Example 168, 1-[2-(Azetidin-1-yl)ethyl]-6-[2-methyl-3-(trifluoromethyl)phenyl]-3H-imidazo[4,5-b]pyridin-2-one]: the IC50 was found to be 4.23 µM.

In the case of `Cc1cccc(-c2cnc3[nH]c(=O)n(CCN4CCC4)c3c2)c1C` [Example 169, 1-[2-(Azetidin-1-yl)ethyl]-6-(2,3-dimethylphenyl)-3H-imidazo[4,5-b]pyridin-2-one], the IC50 amounted to 0.217 µM.

As to `Cc1cc(C)cc(-c2cnc3[nH]c(=O)n(CCN4CCC4)c3c2)c1` [Example 170, 1-[2-(Azetidin-1-yl)ethyl]-6-(3,5-dimethylphenyl)-3H-imidazo[4,5-b]pyridin-2-one], the IC50 stood at 0.581 µM.

Take `Cc1c(F)ccc(-c2cnc3[nH]c(=O)n(CCN4CCC4)c3c2)c1C` [Example 171, 1-[2-(Azetidin-1-yl)ethyl]-6-(4-fluoro-2,3-dimethyl-phenyl)-3H-imidazo[4,5-b]pyridin-2-one]: the IC50 came out at 0.21 µM.

For the molecule `Cc1ccc(C(F)(F)F)cc1-c1cnc2[nH]c(=O)n(CCN3CCC3)c2c1` [Example 172, 1-[2-(Azetidin-1-yl)ethyl]-6-[2-methyl-5-(trifluoromethyl)phenyl]-3H-imidazo[4,5-b]pyridin-2-one], the IC50 is 0.326 µM.

`O=c1[nH]c2ncc(-c3cc(F)cc(F)c3)cc2n1CCNCCO` [Example 173, 6-(3,5-Difluorophenyl)-1-[2-(2-hydroxyethylamino)ethyl]-3H-imidazo[4,5-b]pyridin-2-one]: the IC50 stood at 4.26 µM.

In the case of `O=c1[nH]c2ncc(-c3cc(F)cc(F)c3)cc2n1CCN1CCCC1` [Example 174, 6-(3,5-Difluorophenyl)-1-(2-pyrrolidin-1-ylethyl)-3H-imidazo[4,5-b]pyridin-2-one], the IC50 was determined as 1.25 µM.
